Laboratory results reported in patent publication US11179348B2, “Combination comprising pterostilbene for the treatment of cancer” (FUNDACIÓN UNIVERSIDAD CATÓLICA DE VALENCIA SAN VICENTE …, priority 2015, dated 2021).

Experiments:
[1] = system: human breast, lung, liver, prostate, ovarian, and colorectal cancer cell lines; assay: Effect of Pter on growth or viability in vitro of breast, lung, liver, prostate, ovarian and colorectal tumor cell lines; format: cell-based; conditions: any of the tumor cell lines used (FIG. 15); 15 μM Pter×60 min every 24 h
Description: FIG. 15. In vivo effect of Pter on human breast, lung, liver, prostate, ovarian, and colorectal cancer growth. […] For the lower and maximum Pter dose used, in each case, only the endpoint of the treatment period is shown.
Human A2058, MeWo and MelJuso melanoma cells, and mouse AtT-20 pituitary corticotroph tumor cells were from the American Type Culture Collection (ATCC). Human HEMa-LP epidermal melanocytes were from Life Technologies (Grand Island, N.Y.). Human MDA-MB-231 (triple negative: ER−, PR−, HER2−) and MCF-7 (ER+, PR+, HER2−) breast adenocarcinoma, A549 lung adenocarcinoma (NSCLC), HepG2 hepatocellular carcinoma, LNCaP (AR+) and PC-3 (AR−) prostate adenocarcinoma, SK-OV-3 epithelial ovarian carcinoma, and HT-29 and Caco-2 colorectal carcinoma cells were from the American Type Culture Collection. Cells were grown in Dulbecco's modified Eagle's medium (DMEM) (Invitrogen, San Diego, Calif.), pH 7.4, supplemented with 10% heat-inactivated FCS (Biochrom KG, Berlin, Germany), 100 units/ml penicillin and 100 μg/ml streptomycin. […] Cell numbers were determined using a Coulter Counter (Coulter Electronic Inc., Miami, Fla.). […] Cellular viability was assessed as previously reported (Mena, S. et al. Clin Cancer Res 13, 2658-2666 (2007)), by measuring trypan blue exclusion and leakage of lactate dehydrogenase activity.

HT-29 cells = assay: GSH levels and glutathione- and oxidative stress-related enzyme activities in HT-29 cells growing in vivo; parameters: species or system human; conditions: HT-29, in vivo Pter, day 21
Method: To measure enzyme activity, isolated tumor cells were homogenized in 0.1 M phosphate buffer (pH 7.2) at 4° C. GCL and GSS activities were measured as described previously (Obrador, E. et al. Hepatology 35, 74-81 (2002)). GPX (selenium dependent) activity was measured as described by Flohé and Gunzler (Flohe, L. & Gunzler, W. A. Methods Enzymol 105, 114-121 (1984)) using H2O2 as a substrate. GSR activity was determined as described by Akerboom and Sies (Akerboom, T. P. et al, Bull Eur Physiopathol Respir 17 Suppl, 221-227 (1981)). GGT activity was measured as described previously (Obrador, E. et al. Hepatology 35, 74-81 (2002)). GST activity was measured using an assay kit from Sigma. TXNRD activity, defined by the concentration of sodium-lipoate (disulfide) reduced to dehydrolipoate (dithiol) per milligram protein, was measured as previously described (Javvadi, P. et al. Cancer Res 70, 1941-1950 (2010)). SOD activity was measured as described by Flohé and Otting (Flohe, L. & Otting, F. Methods Enzymol 105, 93-104 (1984).) using 2 mM cyanide in the assay medium to distinguish mangano-type enzyme (SOD2) from the cuprozinc type (SOD1). CAT activity was analyzed as described by Aebi (Aebi, H. Methods Enzymol 105, 121-126 (1984)). NOX activity was measured by chemiluminescence following the methodology of Wind et al. (Wind, S. et al. Comparative pharmacology of chemically distinct NADPH oxidase inhibitors. Br J Pharmacol 161, 885-898 (2010)). Protein concentration was determined with the Pierce BCA protein assay (Fisher Scientific, Waltham, Mass.).
GSH, GSSG, NADP^+ and NADPH Determination.
GSH and GSSG were determined, following procedures previously described (Obrador, E. et al. PLoS One 9, e96466 (2014)), by LC/MS using the same equipment described above for pterostilbene determination. Cell processing was performed according to published methodology, where rapid N-ethylmaleimide derivatization was used to prevent GSH auto-oxidation (Asensi, M. et al. Anal Biochem 217, 323-328 (1994)). NADP^+ and NADPH were quantitated using an assay kit from Sigma (St. Louis, Mo.).
Isolation of Tumor Cells from Mouse Xenografts Using Enzymatic Digestion and a double Ficoll gradient.
To maximize the amount of isolated cells, avoiding the use of RFP-transfected cells and subsequent laser microdissection, an alternative methodology was set up. To maximize cell yield and viability the following combination of enzymes was used: collagenase III (200 U/ml; Sigma-Aldrich), DNase I (200 U/ml; Sigma-Aldrich) and trypsin (5 mg/ml; Invitrogen), and a non-enzymatic dissociation buffer (NEDB, Invitrogen). Briefly, mice were killed, and tumors were removed (avoiding skin, muscle and fat) into cold culture media and processed immediately. The tumors were minced into 1-3 mm fragments, which were then incubated with the dissociation solution (see above) for 30 min at 37° C. The tumor fragments were mixed up and down every 10 min using a […] micropipette with a tip cut to a diameter adapted to tissue fragment size. After each incubation period, the fragments were filtered through a […] nylon mesh cell strainer (BD Biosciences, San Diego, Calif., USA). The released cells were centrifuged at 1200 r.p.m. for 2 min and stored in cold CO2-independent medium with 30% FCS at […]. Fresh dissociation solution was added to the remaining tissue fragments for 30 min. Dissociation was stopped when no additional cells were released. The fragments were pushed through a sieve and all cells from all incubation periods were pooled and counted.
The dissociated cells were layered onto a double Ficoll gradient (Histopaque; Sigma-Aldrich; densities 1.077 and 1.119) and spun at 700 g for 30 min at room temperature. Cells removed from both interfaces were pooled and washed two times in CO2-independent medium and stored at 4° C. Debris and red blood cell elimination was improved with the dual-density gradient. […]

COc1cc(/C=C/c2ccc(O)cc2)cc(OC)c1 [Pter, trans-3,5-dimethoxy-4′-hydroxystilbene]
cell growth or viability in vitro [1]: did not affect
CAT (HT-29 cells): 0.3 ± 0.1 mU/10^6 cells
GCL (HT-29 cells): 57 ± 17 mU/10^6 cells
GSH (HT-29 cells): 8 ± 2 nmol/10^6 cells
GSS (HT-29 cells): 6.5 ± 1.7 mU/10^6 cells
GSSG (HT-29 cells): 0.05 ± 0.02 nmol/10^6 cells
SOD1 (HT-29 cells): 0.2 ± 0.1 U/10^6 cells
SOD2 (HT-29 cells): 0.02 ± 0.01 U/10^6 cells
